# Measured values: US20110144345A1, “SULFOXYIMINO-SUBSTITUTED BENZOYL DERIVATIVE AND HERBICIDE” (NIPPON SODA CO., LTD., priority 2008, published 2011)
# What was measured:
# Echinochloa crus-galli = assay: Paddy pot test, herbicidal effect on Echinochloa crus-galli; type: in vivo; parameters: scale not given here; settings: Screening, 63 g/ha, applied at 1.5-leaf stage, examined after 3 weeks
# Method: (§1) Plastic pots having an area of 100 cm^2 and a depth of 10 cm were filled with paddy soil which is puddled by adding water, and seeds of Echinochloa crus-galli and Scirpus juncoides were planted in the pots. After seeding, rice plants at the 2.5-leaf stage were transplanted and the pots were filled with water. The rice plants were grown in a greenhouse. […] The herbicidal effects and harmful effects on the rice plants were examined after 3 weeks. Herbicidal effects were examined according to the examination criteria described below and were represented by the herbicidal index. [table] […] [formula]
# Scirpus juncoides = assay: Paddy pot test, herbicidal effect on Scirpus juncoides; type: in vivo; parameters: scale not given here; settings: Screening, 63 g/ha, examined after 3 weeks
# Method: as §1
# rice plants = assay: Paddy pot test, harmful effects on transplanted rice plants; type: in vivo; parameters: scale not given here; settings: Screening, 63 g/ha, applied at Echinochloa crus-galli 1.5-leaf stage, examined after 3 weeks
# Method: as §1
structure (smiles),measurement,setting,value
COc1ccc(C(=O)C2=C(O)CCCC2=O)c(Cl)c1N=S(C)(C)=O [Example 149],Echinochloa crus-galli (herbicidal index),Echinochloa crus-galli,5
same,Scripus juncoides (herbicidal index),Scirpus juncoides,6
same,"Rice (harmful effects on the rice plants, index)",rice plants,0
same,melting point,,150 to 152 °C
COc1ccc(C(=O)c2cnn(C)c2O)c(Cl)c1N=S(C)(C)=O [Example 150],Echinochloa crus-galli (herbicidal index),Echinochloa crus-galli,5
same,Scripus juncoides (herbicidal index),Scirpus juncoides,8
same,"Rice (harmful effects on the rice plants, index)",rice plants,0
same,melting point,,164 to 166 °C
COc1ccc(C(=O)c2cnn(C)c2OC(=O)SC)c(Cl)c1N=S1(=O)CCCCC1 [Example 154],Echinochloa crus-galli (herbicidal index),Echinochloa crus-galli,10
same,Scripus juncoides (herbicidal index),Scirpus juncoides,8
same,"Rice (harmful effects on the rice plants, index)",rice plants,0
same,melting point,,163 to 165 °C
COC(=O)c1ccc(C(=O)c2cnn(C)c2O)c(Cl)c1N=S(C)(C)=O [Example 161],Echinochloa crus-galli (herbicidal index),Echinochloa crus-galli,9
same,Scripus juncoides (herbicidal index),Scirpus juncoides,8
same,"Rice (harmful effects on the rice plants, index)",rice plants,0
same,melting point,,115 to 125 °C
O=C1CCCC(O)=C1C(=O)c1ccc(OC(F)F)c(N=S2(=O)CCCCC2)c1Cl [Example 179],Echinochloa crus-galli (herbicidal index),Echinochloa crus-galli,7
same,Scripus juncoides (herbicidal index),Scirpus juncoides,7
same,"Rice (harmful effects on the rice plants, index)",rice plants,1
same,melting point,,125 to 127 °C
Cn1ncc(C(=O)c2ccc(OC(F)F)c(N=S3(=O)CCCCC3)c2Cl)c1O [Example 181],Echinochloa crus-galli (herbicidal index),Echinochloa crus-galli,10
same,Scripus juncoides (herbicidal index),Scirpus juncoides,9
same,"Rice (harmful effects on the rice plants, index)",rice plants,0
same,melting point,,158 to 161 °C
CCn1ncc(C(=O)c2ccc(C#N)c(N=S3(=O)CCCCC3)c2Cl)c1O [Example 187],Echinochloa crus-galli (herbicidal index),Echinochloa crus-galli,10
same,Scripus juncoides (herbicidal index),Scirpus juncoides,5
same,"Rice (harmful effects on the rice plants, index)",rice plants,0
same,melting point,,159 to 161 °C
Cc1c(N=S2(=O)CCCCC2)cccc1C(=O)c1cnn(C)c1O [Example 191],Echinochloa crus-galli (herbicidal index),Echinochloa crus-galli,6
same,Scripus juncoides (herbicidal index),Scirpus juncoides,7
same,"Rice (harmful effects on the rice plants, index)",rice plants,0
same,melting point,,166 to 168 °C
CSC(=O)Oc1c(C(=O)c2cccc(N=S3(=O)CCCCC3)c2C)cnn1C [Example 193],Echinochloa crus-galli (herbicidal index),Echinochloa crus-galli,6
same,Scripus juncoides (herbicidal index),Scirpus juncoides,7
same,"Rice (harmful effects on the rice plants, index)",rice plants,0
same,melting point,,149 to 151 °C
Cn1ncc(C(=O)c2cccc(N=S3(=O)CCCCC3)c2Br)c1O [Example 196],Echinochloa crus-galli (herbicidal index),Echinochloa crus-galli,6
same,Scripus juncoides (herbicidal index),Scirpus juncoides,8
same,"Rice (harmful effects on the rice plants, index)",rice plants,0
same,melting point,,177 to 179 °C
COc1ccc(C(=O)c2cnn(C)c2O)c(OC)c1N=S1(=O)CCCC1 [Example 198],Echinochloa crus-galli (herbicidal index),Echinochloa crus-galli,5
same,Scripus juncoides (herbicidal index),Scirpus juncoides,7
same,"Rice (harmful effects on the rice plants, index)",rice plants,0
same,melting point,,151 to 153 °C
CC(C)c1ccc(C(=O)c2cnn(C)c2O)c(Cl)c1N=S1(=O)CCCCC1 [Example 208],Echinochloa crus-galli (herbicidal index),Echinochloa crus-galli,8
same,Scripus juncoides (herbicidal index),Scirpus juncoides,7
same,"Rice (harmful effects on the rice plants, index)",rice plants,0
same,melting point,,102 to 104 °C
COc1ccc(C(=O)c2cnn(C)c2O)c(Cl)c1N=S(C)(=O)C(C)C (stereo not shown) [Example 210],Echinochloa crus-galli (herbicidal index),Echinochloa crus-galli,6
same,Scripus juncoides (herbicidal index),Scirpus juncoides,9
same,"Rice (harmful effects on the rice plants, index)",rice plants,0
same,melting point,,167 to 169 °C
COc1ccc(C(=O)c2cnn(C)c2O)c(Cl)c1N=S1(=O)CCCC1C (stereo not shown) [Example 218],Echinochloa crus-galli (herbicidal index),Echinochloa crus-galli,6
same,Scripus juncoides (herbicidal index),Scirpus juncoides,7
same,"Rice (harmful effects on the rice plants, index)",rice plants,0
same,melting point,,84 to 86 °C
CCS(=O)(CC)=Nc1c(OC)ccc(C(=O)c2cnn(C)c2O)c1Cl [Example 247],Echinochloa crus-galli (herbicidal index),Echinochloa crus-galli,10
same,Scripus juncoides (herbicidal index),Scirpus juncoides,9
same,"Rice (harmful effects on the rice plants, index)",rice plants,0
same,melting point,,165 to 168 °C
COc1ccc(C(=O)c2c(C)nn(C)c2O)c(Cl)c1N=S1(=O)CCCCC1 [Example 250],Echinochloa crus-galli (herbicidal index),Echinochloa crus-galli,7
same,Scripus juncoides (herbicidal index),Scirpus juncoides,8
same,"Rice (harmful effects on the rice plants, index)",rice plants,0
same,melting point,,138 to 140 °C
